Results: patent US20200247897A1, “THERAPEUTIC ANTIBODIES BASED ON MUTATED IGG HEXAMERS” (GENMAB B.V., priority 2017, published 2020)
Where two headings read alike, the source gives them in different places.

Tests used:
SNU-C2B = experiment: Drug combination screen (ATPlite, Synergy Score), SNU-C2B
SW480 = experiment: Drug combination screen (ATPlite, Synergy Score), SW480; type: cell-based, human
LS-411N = experiment: Drug combination screen (ATPlite, Synergy Score), LS-411N; type: cell-based, human
DLD-1 = experiment: Drug combination screen (ATPlite, Synergy Score), DLD-1
HCT 116 = experiment: Drug combination screen (ATPlite, Synergy Score), HCT 116
[1] = compound in combination with IgG1-hDR5-01-G56T-E430G + IgG1-hDR5-05-E430G, SNU-C2B, 72 hour ATPlite, 6x6 matrix
[2] = compound in combination with IgG1-hDR5-01-G56T-E430G + IgG1-hDR5-05-E430G, SW480, 72 hour ATPlite, 6x6 matrix
[3] = compound in combination with IgG1-hDR5-01-G56T-E430G + IgG1-hDR5-05-E430G, LS-411N, 72 hour ATPlite, 6x6 matrix
[4] = compound in combination with IgG1-hDR5-01-G56T-E430G + IgG1-hDR5-05-E430G, DLD-1, 120 hour ATPlite, 6x6 matrix
[5] = compound in combination with IgG1-hDR5-01-G56T-E430G + IgG1-hDR5-05-E430G, HCT 116, 120 hour ATPlite, 6x6 matrix

Cn1c(Nc2ccc(C(F)(F)F)cc2)nc2cc(Oc3ccnc(-c4ncc(C(F)(F)F)[nH]4)c3)ccc21 [RAF265]
Synergy Score SNU-C2B (SNU-C2B; [1]): 3.7 | Synergy Score SW480 (SW480; [2]): 4.5 | Synergy Score LS-411N (LS-411N; [3]): 10.5 | Synergy Score DLD-1 (DLD-1; [4]): 5.6 | Synergy Score HCT-116 (HCT 116; [5]): 2.5

O=C1NC(=O)C(c2ccccc2[N+](=O)[O-])=C1Nc1ccc(O)c(Cl)c1 [SB 415286]
Synergy Score SNU-C2B (SNU-C2B; [1]): 0.7 | Synergy Score SW480 (SW480; [2]): 3.8 | Synergy Score LS-411N (LS-411N; [3]): 2.1 | Synergy Score DLD-1 (DLD-1; [4]): 0.4 | Synergy Score HCT-116 (HCT 116; [5]): 0.8

Cn1cc(C2=C(c3ccc(Cl)cc3Cl)C(=O)NC2=O)c2ccccc21 [SB-216763]
Synergy Score SNU-C2B (SNU-C2B; [1]): 0.3 | Synergy Score SW480 (SW480; [2]): 1.4 | Synergy Score LS-411N (LS-411N; [3]): 1.1 | Synergy Score DLD-1 (DLD-1; [4]): 0.5 | Synergy Score HCT-116 (HCT 116; [5]): 0.1

Oc1c2ccccc2c2c3c(cccc13)N=N2 [SP 600125]
Synergy Score SNU-C2B (SNU-C2B; [1]): 2 | Synergy Score SW480 (SW480; [2]): 0.9 | Synergy Score LS-411N (LS-411N; [3]): 0.5 | Synergy Score DLD-1 (DLD-1; [4]): 3.3 | Synergy Score HCT-116 (HCT 116; [5]): 0.6

CC(C)=CCC/C(C)=C/CC/C(C)=C/CSc1ccccc1C(=O)O [Salirasib]
Synergy Score SNU-C2B (SNU-C2B; [1]): 0.4 | Synergy Score SW480 (SW480; [2]): 0.4 | Synergy Score LS-411N (LS-411N; [3]): 0 | Synergy Score DLD-1 (DLD-1; [4]): 0.1 | Synergy Score HCT-116 (HCT 116; [5]): 0.1

CNC(=O)c1cc(Oc2ccc(NC(=O)Nc3ccc(Cl)c(C(F)(F)F)c3)cc2)ccn1 [Sorafenib]
Synergy Score SNU-C2B (SNU-C2B; [1]): 2.9 | Synergy Score SW480 (SW480; [2]): 3.9 | Synergy Score LS-411N (LS-411N; [3]): 6 | Synergy Score DLD-1 (DLD-1; [4]): 2.6 | Synergy Score HCT-116 (HCT 116; [5]): 0.5

Cc1ccccc1CN1C(=O)C2=C(CCN(Cc3ccccc3)C2)N2CCN=C12 [TIC10]
Synergy Score SNU-C2B (SNU-C2B): 13.1 | Synergy Score SW480 (SW480): 3.4 | Synergy Score LS-411N (LS-411N): 23.3 | Synergy Score DLD-1 (DLD-1): 15.5 | Synergy Score HCT-116 (HCT 116): 2.2

CO[C@H]1C[C@@H]2CC[C@@H](C)[C@@](O)(O2)C(=O)C(=O)N2CCCC[C@H]2C(=O)O[C@H]([C@H](C)C[C@@H]2CC[C@@H](OC(=O)C(C)(CO)CO)[C@H](OC)C2)CC(=O)[C@H](C)/C=C(\C)[C@@H](O)[C@@H](OC)C(=O)[C@H](C)C[C@H](C)/C=C/C=C/C=C/1C [Temsirolimus]
Synergy Score SNU-C2B (SNU-C2B; [1]): 4.5 | Synergy Score SW480 (SW480; [2]): 1.6 | Synergy Score LS-411N (LS-411N; [3]): 0.6 | Synergy Score DLD-1 (DLD-1; [4]): 0.7 | Synergy Score HCT-116 (HCT 116; [5]): 0.6

CC(=O)Nc1cccc(-n2c(=O)n(C3CC3)c(=O)c3c(Nc4ccc(I)cc4F)n(C)c(=O)c(C)c32)c1 [Trametinib]
Synergy Score SNU-C2B (SNU-C2B; [1]): 0.6 | Synergy Score SW480 (SW480; [2]): 7.2 | Synergy Score LS-411N (LS-411N; [3]): 0.9 | Synergy Score DLD-1 (DLD-1; [4]): 4.1 | Synergy Score HCT-116 (HCT 116; [5]): 4

COc1cc2nccc(Oc3ccc(NC(=O)C4(C(=O)Nc5ccc(F)cc5)CC4)cc3)c2cc1OC [XL184]
Synergy Score SNU-C2B (SNU-C2B; [1]): 1.5 | Synergy Score SW480 (SW480; [2]): 6 | Synergy Score LS-411N (LS-411N; [3]): 5.8 | Synergy Score DLD-1 (DLD-1; [4]): 4.1 | Synergy Score HCT-116 (HCT 116; [5]): 1

COCCn1c2c([n+](Cc3cnccn3)c1C)C(=O)c1ccccc1C2=O [YM155]
Synergy Score SNU-C2B (SNU-C2B; [1]): 11.5 | Synergy Score SW480 (SW480; [2]): 12.1 | Synergy Score LS-411N (LS-411N; [3]): 9 | Synergy Score DLD-1 (DLD-1; [4]): 5.2 | Synergy Score HCT-116 (HCT 116; [5]): 0.5

CC(=O)O[C@@]12CO[C@@H]1C[C@H](O)[C@@]1(C)C(=O)[C@H](O)C3=C(C)[C@@H](OC(=O)[C@H](O)[C@@H](NC(=O)OC(C)(C)C)c4ccccc4)C[C@@](O)([C@@H](OC(=O)c4ccccc4)[C@H]21)C3(C)C [docetaxel]
Synergy Score SNU-C2B (SNU-C2B; [1]): 15.8 | Synergy Score SW480 (SW480; [2]): 19.5 | Synergy Score LS-411N (LS-411N; [3]): 36.2 | Synergy Score DLD-1 (DLD-1; [4]): 17.6 | Synergy Score HCT-116 (HCT 116; [5]): 7.9

CCc1c2c(nc3ccc(OC(=O)N4CCC(N5CCCCC5)CC4)cc13)-c1cc3c(c(=O)n1C2)COC(=O)[C@]3(O)CC [irinotecan, reference compound]
Synergy Score SNU-C2B (SNU-C2B; [1]): 13.4 | Synergy Score SW480 (SW480; [2]): 24.7 | Synergy Score LS-411N (LS-411N; [3]): 6.8 | Synergy Score DLD-1 (DLD-1; [4]): 15 | Synergy Score HCT-116 (HCT 116; [5]): 4.4

IC-87114
Synergy Score SNU-C2B (SNU-C2B; [1]): 0.1 | Synergy Score SW480 (SW480; [2]): 0 | Synergy Score LS-411N (LS-411N; [3]): 0.2 | Synergy Score DLD-1 (DLD-1; [4]): 0 | Synergy Score HCT-116 (HCT 116; [5]): 0.1
